Legend:
Type in all cases: binding, mouse
[1] = biological target: monoclonal antibody 1A5.5; test: Indirect competitive enzyme immunoassay, monoclonal antibody 1A5.5; details: for I50 (half-maximal inhibition): MAb 1A5.5, coating antigen H
Description: (§1) An indirect enzyme immunoassay is used to screen for the production of anti-imidazolinone anti-bodies in the serum of the immunized mice and in cell fusion cultures. The method used is essentially the same as the method described by Voller, et al (Manual of Clinical Immunology, eds. N. Rose Friedman, H., pp. 506-512, 1976). For the indirect enzyme immunoassays, an antigen is adsorbed onto polystyrene flat bottom wells in 0.1M Na2CO3 buffer pH 9.6. Excess unbound material is washed away with buffer (PBS, containing 0.01M NaH2PO4—Na2HPO4 pH 7.6 with 0.05% TWEEN® 20 (a polyoxyethyene sorbitan monolaurate surpactantor Atlas chemical industries and 0.02% NaN3). A 0.05% gelatin solution prepared in PBS is used to block the sites unoccupied by the antigen to prevent non-specific binding of reagents. Antibody from serum or culture are added into the wells for binding to the bound antigen. The wells are washed and the amount of bound anitbody is determined by adding alkaline phosphatase-conjugated goat anti-mouse IgG (Boehringer) to the wells followed by the addition of a p-nitrophenyl phosphate solution for color development. The color intensity is determined spectrophotometrically and is used to determine the titers.
(§2) The bound antigen and imidazolinone compound compete for the antibody molecules. The wells are then washed and the color is developed as described above. In this assay, the color is inversely proportional to the amount of imidazolinone compound. In practice, standard curves are generated with known amounts of an imidazolinone compound and amounts present in test samples are calculated by interpolation.
(§3) Indirect competitive enzyme immunoassays for several imidazolinone compounds, using various monoclonal antibodies and antigens, are conducted according to the procedure described in Example 9. Antigens G and H are as described in Example 10 and Antigen I is shown below.

[2] = biological target: monoclonal antibody 3A5.1; test: Indirect competitive enzyme immunoassay, monoclonal antibody 3A5.1
Description: as §1, §2, §3

[3] = biological target: monoclonal antibody 1D2.6; test: Indirect competitive enzyme immunoassay, monoclonal antibody 1D2.6
Description: as §1, §2, §3

[4] = biological target: monoclonal antibody 3A2.2; test: Indirect competitive enzyme immunoassay, monoclonal antibody 3A2.2
Description: as §1, §2, §3

[5] = biological target: monoclonal antibody 2C6.5; test: Indirect competitive enzyme immunoassay, monoclonal antibody 2C6.5
Description: as §1, §2, §3

[6] = tested on: monoclonal antibody 3A2.2; test: Direct competitive enzyme immunoassay with MAb 3A2.2 and alkaline phosphatase enzyme conjugate; details: mean of triplicate
Description: The monoclonal antibody 3A2.2 prepared in Example 10 and the enzyme conjugate prepared in Example 12 are used to establish a direct competitive enzyme immunoassay method for the determination of the concentration of imazapyr in samples. A constant amount of the monoclonal antibody 3A2.2 is adsorbed onto polystyrene plate wells through an affinity purified goat anti-mouse immunoglobulin which is previously adsorbed onto the polystyrene plate wells. The wells are washed with buffer (PBS, containing 0.01M NaH2PO4—Na2HPO4 pH 7.6 with 0.05% TWEEN® 20 (a polyoxyethylene sorbitan monolaurate surfactant of Atlas Chemical Industries and 0.02% NaN3) and blocked with a 0.05% gelatin solution prepared in PBS. Standard solutions having concentrations of imazapyr from 0 to 5,000 ng/mL are added to the blocked wells followed by the addition of the aforementioned enzyme conjugate.
After several minutes, the wells are washed and the color is developed by adding BRL alkaline phosphatase substrate amplification kit (commercially available from GIBCO BRL Life Technologies Inc., […], Md.). After several minutes, readings are taken for each well at 490 nm using a microwell reader.
A standard curve plot having the log of imazapyr concentration on the x-axis and the optical density reading at 490 nm (OD 490) on the Y-axis is used to determine unknown concentrations of imazapyr present in soil, water or plant samples from their OD 490 values.
The OD 490 readings for 6 imazapyr standard solutions and a solvent blank are obtained from a direct enzyme immunoassay experiment run in triplicate. The standard curve obtained by plotting the mean OD 490 reading versus the logarithm of the standard imazapyr concentration is used to determine unknown imazapyr concentrations from about 0.5 ng/mL to 500 ng/mL.

| Compound | I50 (half-maximal inhibition) [1] | I50 (half-maximal inhibition) ([2]; MAb 3A5.1, coating antigen G) | I50 (half-maximal inhibition) ([2]; MAb 3A5.1, coating antigen I) | I50 (half-maximal inhibition) ([3]; MAb 1D2.6, coating antigen G) | I50 (half-maximal inhibition) ([3]; MAb 1D2.6, coating antigen I) | I50 (half-maximal inhibition) ([4]; MAb 3A2.2, coating antigen G) | I50 (half-maximal inhibition) ([4]; MAb 3A2.2, coating antigen I) | I50 (half-maximal inhibition) ([5]; MAb 2C6.5, coating antigen G) | I50 (half-maximal inhibition) ([5]; MAb 2C6.5, coating antigen I) | OD 490 Reading ([6]; imazapyr 0.05 ng/mL) | OD 490 Reading ([6]; imazapyr 0.50 ng/mL) | OD 490 Reading ([6]; imazapyr 5.0 ng/mL) | OD 490 Reading ([6]; imazapyr 50 ng/mL) | OD 490 Reading ([6]; imazapyr 500 ng/mL) | OD 490 Reading ([6]; imazapyr 5,000 ng/mL) | affinity compared to the other imidazolinone compounds ([1]; MAb 1A5.5) | affinity compared to the other imidazolinone compounds ([3]; MAb 1D2.6) |
| --- | --- | --- | --- | --- | --- | --- | --- | --- | --- | --- | --- | --- | --- | --- | --- | --- | --- |
| Cc1cnc(C2=NC(C)(C(C)C)C(=O)N2)c(C(=O)O)c1 (stereo not drawn) [Imazamethapyr, 2-(4-isopropyl-4-methyl-5-oxo-2-imidazolin-2-yl)-5-methylnicotinic acid] | 100 ppb (ng/mL) | >1,000 ppb (ng/mL) | 340 ppb (ng/mL) | >10,000 ppb (ng/mL) | 250 ppb (ng/mL) | 31 ppb (ng/mL) | 27 ppb (ng/mL) | 171 ppb (ng/mL) | 204 ppb (ng/mL) |  |  |  |  |  |  |  |  |
| CC(C)C1(C)N=C(c2ncccc2C(=O)O)NC1=O (stereo not drawn) [Imazapyr, 2-(4-isopropyl-4-methyl-5-oxo-2-imidazolin-2-yl)nicotinic acid] | 500 ppb (ng/mL) |  | >5,000 ppb (ng/mL) | >10,000 ppb (ng/mL) | >1,000 ppb (ng/mL) | 290 ppb (ng/mL) | 331 ppb (ng/mL) |  |  | 2.671 | 2.507 | 1.893 | 0.801 | 0.474 | 0.446 |  |  |
| CC(C)C1(C)N=C(c2nc3ccccc3cc2C(=O)O)NC1=O (stereo not drawn) [Imazaquin, 2-(4-isopropyl-4-methyl-5-oxo-2-imidazolin-2-yl)-3-quinolinecarboxylic acid] | >1,000 ppb (ng/mL) |  | 800 ppb (ng/mL) | >10,000 ppb (ng/mL) | 2,000 ppb (ng/mL) | 5 ppb (ng/mL) | 3 ppb (ng/mL) |  |  |  |  |  |  |  |  |  |  |
| CCc1cnc(C2=NC(C)(C(C)C)C(=O)N2)c(C(=O)O)c1 (stereo not drawn) [Imazethapyr, 5-ethyl-2-(4-isopropyl-4-methyl-5-oxo-2-imidazolin-2-yl)nicotinic acid] | 60 ppb (ng/mL) | >1,000 ppb (ng/mL) | 220 ppb (ng/mL) | >10,000 ppb (ng/mL) | 20 ppb (ng/mL) | 34 ppb (ng/mL) | 21 ppb (ng/mL) | 13 ppb (ng/mL) | 15 ppb (ng/mL) |  |  |  |  |  |  | greater affinity | greater affinity |
| mixture of methyl 6-(4-isopropyl-4-methyl-5-oxo-2-imidazolin-2-yl)-m-toluate and methyl 2-(4-isopropyl-4-methyl-5-oxo-2-imidazolin-2-yl)-p-toluate [Imazamethabenz-methyl] | 500 ppb (ng/mL) | 400 ppb (ng/mL) | 90 ppb (ng/mL) | >10,000 ppb (ng/mL) | 105 ppb (ng/mL) | 322 ppb (ng/mL) | 356 ppb (ng/mL) |  |  |  |  |  |  |  |  |  |  |
